Assay results from US20130136836A1, “Taste-Masking Compositions, Sweetener Compositions and Consumable Product Compositions Containing the Same” (Nutrinova Nutrition Specialties & Food Ingredients GmbH, priority 2011, published 2013).

How the values were obtained:
[1] = tested on: panel of trained sensory evaluators; assay: Taste and spit assay, descriptive taste impression versus base samples, panel of 4 trained sensory evaluators (Examples 3 to 13); type: in vivo, human; settings: for further effect added to the composition of the invention: benzaldehyde 0.02 wppm, below its threshold
Method: All tests were conducted under controlled and standardized conditions.
(§1) The samples were prepared by a trained laboratory assistant.
35 ml of the samples were served at room temperature in clear plastic cups.
The following samples comprising a composition of the invention were tested for their ability to improve the taste of artificial sweeteners.
All samples were tested in duplicate and evaluated at least 3 different concentrations in comparison to 3 base samples (samples 1 to 3).
The panelists were asked to evaluate and to describe the taste impression of the samples 4 to 13 containing a sweetener composition comprising acesulfame potassium, sucralose and a composition of the invention, e.g. bitter aftertaste, creaminess, fullness and character of the sweeteners in each case in comparison to the base samples 1 to 3.
The results of the taste and spit assay are based in each case on a qualitative evaluation of the differences between the samples.

[2] = tested on: panel of trained sensory evaluators; assay: Taste and spit assay with regard to sweetness in the aftertaste, panel of 11 trained sensory evaluators (Example 2); type: in vivo, human; settings: 11 panelists; 35 ml at 6.0-8.0 °C; after 2 minutes; qualitative comparison of three samples; FIG. 2
Method: Again the panelists are given samples.
Air was constantly exchanged.
as §1
The panel used the sweetness scale anchored by three concentrations of sucrose:
Sweetness was assessed with the 1st sip (max. 30 ml, min of 15 ml) and scored in the aftertaste (after 2 minutes).
All samples were tested in duplicate.

Q: What does the source list for `O=Cc1ccccc1` [Benzaldehyde, benzaldehyde]?
A: further effect added to the composition of the invention ([1]; in sample 12 (with naringin, syringaldehyde, massoia lactone, whiskey lactone)): did not add any further effect; further effect added to the composition of the invention ([1]; in sample 13 (with naringin, 4-methoxy salicylaldehyde, lactones, amino acids; sucralose 75 wppm)): did not add any further effect

Q: How did the “sweetness in the aftertaste” value [2] turn out when `OC[C@H]1O[C@@](CO)(O[C@H]2O[C@H](CO)[C@@H](O)[C@H](O)[C@H]2O)[C@@H](O)[C@@H]1O` [saccharose] was run?
A: less sweet in the aftertaste than acesulfame potassium and sucralose

Q: For delta-undecalactone, which “taste impression of the lactone in the composition” value ([1]; delta-undecalactone 0.0388 wppm in Sample 14, replacing massoia lactone, 4 panelists) is on record?
A: not being too volatile and as adding a creamy taste, and as improving the total composition
